Assay results from ChEMBL document CHEMBL1121945, “Nitrogen bridgehead compounds. 18. New antiallergic 4H-pyrido[1,2-a]pyrimidin-4-ones. 1” (J Med Chem, 1982).

Tests used:
Format in all cases: functional
[1] = species on record: Rattus norvegicus; experiment: Inhibition of histamine release from sensitized rat mast cells in vitro
[2] = test system: Rattus norvegicus; experiment: Inhibition of rat passive cutaneous anaphylaxis (PCA) reaction after intravenous administration; settings: for ED50: Rattus norvegicus, iv, read-out: ID50 (the source's name)
[3] = test system: Rattus norvegicus; experiment: Inhibition of rat passive cutaneous anaphylaxis (PCA) reaction was determined after oral administration; settings: for ED50: read-out: ID50 (the source's name)
[4] = Rattus norvegicus, Mast cell, read-out: EC50

SMILES	EC50 [1, 4]	ED50 [2]	ED50 ([3]; Rattus norvegicus, po)	further results
CC1CC/C(=N\Nc2ccccc2F)c2ncc(C(=O)O)c(=O)n21 (stereo unspecified)	1.2 µM	5 µmol/kg	> 1000 µmol/kg	–
CC1CCn2c(ncc(C(=O)O)c2=O)/C1=N/Nc1ccccc1 (stereo unspecified)	5.4 µM	32 µmol/kg	> 320 µmol/kg	–
CC1CC/C(=N\Nc2ccccc2)c2nccc(=O)n21 (stereo unspecified)	–	–	> 100 µmol/kg	–
Cc1cccc(N/N=C2\CCC(C)n3c2ncc(C(=O)O)c3=O)c1 (stereo unspecified)	72.9 µM	0.4 µmol/kg	72.5 µmol/kg	–
CC1CC/C(=N\Nc2ccccc2C(F)(F)F)c2ncc(C(=O)O)c(=O)n21 (stereo unspecified)	–	–	> 1000 µmol/kg	–
CC1CC/C(=N\Nc2ccc(O)cc2)c2ncc(C(=O)O)c(=O)n21 (stereo unspecified)	1.3 µM	1.7 µmol/kg	> 100 µmol/kg	–
CC1CC/C(=N\Nc2cccc(C(=O)O)c2)c2nccc(=O)n21 (stereo unspecified)	–	> 100 µmol/kg	> 100 µmol/kg	EC50 ([1]; mast cells): 655 uM l-1
CC1CC/C(=N\Nc2cccc(C(F)(F)F)c2)c2ncc(C(=O)O)c(=O)n21 (stereo unspecified)	–	–	> 1000 µmol/kg	–
CCOc1ccccc1N/N=C1\CCC(C)n2c1ncc(C(=O)O)c2=O (stereo unspecified)	–	–	> 1000 µmol/kg	–
CCOC(=O)c1cccc(N/N=C2\CCC(C)n3c2ncc(C(=O)O)c3=O)c1 (stereo unspecified)	–	–	> 100 µmol/kg	–
CC(C)c1ccc(N/N=C2\CCC(C)n3c2ncc(C(=O)O)c3=O)cc1 (stereo unspecified)	1.2 µM	2.4 µmol/kg	> 100 µmol/kg	–
CC1CC/C(=N\Nc2ccc(C3CC3)cc2)c2ncc(C(=O)O)c(=O)n21 (stereo unspecified)	1 µM	41.1 µmol/kg	100 µmol/kg	–
CC1CC/C(=N\Nc2ccc(C(F)(F)F)cc2)c2ncc(C(=O)O)c(=O)n21 (stereo unspecified)	0.28 µM	38.6 µmol/kg	> 1000 µmol/kg	–
CC1CC/C(=N\Nc2ccccc2)c2ncc(C(N)=O)c(=O)n21 (stereo unspecified)	–	–	> 1000 µmol/kg	–
CC1CC/C(=N\Nc2ccc(C(=O)O)cc2)c2ncc(C(=O)O)c(=O)n21 (stereo unspecified)	–	7.6 µmol/kg	–	EC50 ([1]; mast cells): 1000 uM l-1
COc1ccccc1N/N=C1\CCC(C)n2c1ncc(C(=O)O)c2=O (stereo unspecified)	–	–	> 1000 µmol/kg	–
CCOc1ccc(N/N=C2\CCC(C)n3c2ncc(C(=O)O)c3=O)cc1 (stereo unspecified)	17.6 µM	1.6 µmol/kg	> 100 µmol/kg	–
CC1C/C(=N\Nc2ccccc2)c2ncc(C(=O)O)c(=O)n2C1 (stereo unspecified)	13 µM	5.7 µmol/kg	> 320 µmol/kg	–
CC1CC/C(=N\Nc2cccc(Cl)c2)c2ncc(C(=O)O)c(=O)n21 (stereo unspecified)	–	0.6 µmol/kg	> 100 µmol/kg	EC50 ([1]; mast cells): 311 uM l-1
CC1CCC(=NNc2ccccc2)c2ncc(C(=O)O)c(=O)n21 (stereo unspecified)	2.2 µM	0.6 µmol/kg	1.2 µmol/kg	–
CC(=O)c1ccccc1N/N=C1\CCC(C)n2c1ncc(C(=O)O)c2=O (stereo unspecified)	–	–	> 1000 µmol/kg	–
CC1CC/C(=N\Nc2ccc(CC(=O)O)cc2)c2ncc(C(=O)O)c(=O)n21 (stereo unspecified)	3.4 µM	60.9 µmol/kg	> 100 µmol/kg	–

SMILES	EC50 [1, 4]	ED50 [2]	ED50 ([3]; Rattus norvegicus, po)	further results
CC1CC/C(=N\Nc2cccc(Br)c2)c2ncc(C(=O)O)c(=O)n21 (stereo unspecified)	6.7 µM	0.4 µmol/kg	> 320 µmol/kg	–
CC1CCCc2ncc(C(=O)O)c(=O)n21 (stereo unspecified)	–	240 µmol/kg	–	–
Cc1ccc(N/N=C2\CCC(C)n3c2ncc(C(=O)O)c3=O)cc1 (stereo unspecified)	0.28 µM	1.3 µmol/kg	> 1000 µmol/kg	–
CC1CC/C(=N\Nc2ccc(I)cc2)c2ncc(C(=O)O)c(=O)n21 (stereo unspecified)	–	–	> 1000 µmol/kg	–
CC1CC/C(=N\Nc2ccc([N+](=O)[O-])cc2)c2ncc(C(=O)O)c(=O)n21 (stereo unspecified)	8.9 µM	0.8 µmol/kg	> 320 µmol/kg	–
Cc1ccccc1N/N=C1\CCC(C)n2c1ncc(C(=O)O)c2=O (stereo unspecified)	–	–	> 1000 µmol/kg	–
CC1CC/C(=N\Nc2ccc(C(=O)O)cc2)c2nccc(=O)n21 (stereo unspecified)	–	> 100 µmol/kg	> 100 µmol/kg	EC50 ([1]; mast cells): 450 uM l-1
CC(=O)c1ccc(N/N=C2\CCC(C)n3c2ncc(C(=O)O)c3=O)cc1 (stereo unspecified)	8.1 µM	9.5 µmol/kg	> 100 µmol/kg	–
CC(=O)c1cccc(N/N=C2\CCC(C)n3c2ncc(C(=O)O)c3=O)c1 (stereo unspecified)	–	–	> 1000 µmol/kg	–
CC1CC/C(=N\Nc2ccc(Br)cc2)c2ncc(C(=O)O)c(=O)n21 (stereo unspecified)	2 µM	0.8 µmol/kg	> 100 µmol/kg	–
CC1CC/C(=N\Nc2ccccc2Br)c2ncc(C(=O)O)c(=O)n21 (stereo unspecified)	–	–	> 320 µmol/kg	–
CCOc1ccc(N/N=C2\CC[C@H](C)n3c2ncc(C(=O)O)c3=O)cc1	19.2 µM	100 µmol/kg	> 100 µmol/kg	–
C[C@H]1CC/C(=N\Nc2ccc(O)cc2)c2ncc(C(=O)O)c(=O)n21	26.2 µM	110 µmol/kg	> 100 µmol/kg	–
CCOc1ccc(N/N=C2\CC[C@@H](C)n3c2ncc(C(=O)O)c3=O)cc1	1 µM	0.2 µmol/kg	> 100 µmol/kg	–
C[C@@H]1CC/C(=N\Nc2ccc(O)cc2)c2ncc(C(=O)O)c(=O)n21	15.6 µM	0.14 µmol/kg	> 100 µmol/kg	–
CCOC(=O)c1cnc2n(c1=O)C(C)CC/C2=N\Nc1cccc(C(=O)O)c1 (stereo unspecified)	–	100 µmol/kg	–	EC50 ([1]; mast cells): 740 uM l-1
O=C(O)c1cnc2n(c1=O)CCC/C2=N\Nc1ccccc1	2.9 µM	31.6 µmol/kg	> 100 µmol/kg	–
CC1CC/C(=N\Nc2cccc(I)c2)c2ncc(C(=O)O)c(=O)n21 (stereo unspecified)	–	–	> 1000 µmol/kg	–
CCCCc1ccc(N/N=C2\CCC(C)n3c2ncc(C(=O)O)c3=O)cc1 (stereo unspecified)	0.7 µM	7.8 µmol/kg	100 µmol/kg	–
CCOc1cccc(N/N=C2\CCC(C)n3c2ncc(C(=O)O)c3=O)c1 (stereo unspecified)	4.7 µM	0.2 µmol/kg	> 100 µmol/kg	–
CCOC(=O)c1cnc2n(c1=O)C(C)CC/C2=N\Nc1ccccc1C(=O)O (stereo unspecified)	100 µM	10 µmol/kg	–	–
COc1ccc(N/N=C2\CCC(C)n3c2ncc(C(=O)O)c3=O)cc1 (stereo unspecified)	–	0.8 µmol/kg	7.6 µmol/kg	EC50 ([1]; mast cells): 128 uM l-1

SMILES	EC50 [1, 4]	ED50 [2]	ED50 ([3]; Rattus norvegicus, po)	further results
CCOC(=O)c1cnc2n(c1=O)C(C)CC/C2=N\Nc1ccccc1 (stereo unspecified)	–	–	> 1000 µmol/kg	–
CC1CC/C(=N\Nc2ccccc2O)c2ncc(C(=O)O)c(=O)n21 (stereo unspecified)	–	0.26 µmol/kg	> 100 µmol/kg	EC50 ([1]; mast cells): 208 uM l-1
CC1CC/C(=N\Nc2ccccc2Cl)c2ncc(C(=O)O)c(=O)n21 (stereo unspecified)	–	–	> 1000 µmol/kg	–
CC1CC/C(=N\Nc2ccccc2)c2ncc(C(=O)NN)c(=O)n21 (stereo unspecified)	–	–	> 1000 µmol/kg	–
CC1CC/C(=N\Nc2ccc(-c3ccccc3)cc2)c2ncc(C(=O)O)c(=O)n21 (stereo unspecified)	4.4 µM	1.1 µmol/kg	> 100 µmol/kg	–
CC1CC/C(=N\Nc2ccccc2)c2ncc(C#N)c(=O)n21 (stereo unspecified)	–	–	> 1000 µmol/kg	–
CNC(=O)c1ccc(N/N=C2\CCC(C)n3c2ncc(C(=O)O)c3=O)cc1 (stereo unspecified)	100 µM	9.6 µmol/kg	> 100 µmol/kg	–
CC1CC/C(=N\Nc2cccc([N+](=O)[O-])c2)c2ncc(C(=O)O)c(=O)n21 (stereo unspecified)	–	0.5 µmol/kg	–	ED50 [3]: > 100 µmol/kg
CC1CC/C(=N\Nc2ccc(F)cc2)c2ncc(C(=O)O)c(=O)n21 (stereo unspecified)	1.2 µM	12.2 µmol/kg	> 1000 µmol/kg	–
CCOC(=O)c1cnc2n(c1=O)C(C)CC/C2=N\Nc1ccc(C(=O)O)cc1 (stereo unspecified)	66 µM	100 µmol/kg	–	–
CC1CC/C(=N\Nc2ccccc2I)c2ncc(C(=O)O)c(=O)n21 (stereo unspecified)	–	–	> 1000 µmol/kg	–
CC1CC/C(=N\Nc2ccccc2C(=O)O)c2nccc(=O)n21 (stereo unspecified)	100 µM	> 100 µmol/kg	> 100 µmol/kg	–
CC1CC/C(=N\Nc2ccccc2)c2ncc(CC(=O)O)c(=O)n21 (stereo unspecified)	–	100 µmol/kg	–	EC50 ([1]; mast cells): 430 uM l-1
CC1CC/C(=N\Nc2ccccc2CCO)c2ncc(C(=O)O)c(=O)n21 (stereo unspecified)	–	10.8 µmol/kg	> 100 µmol/kg	EC50 ([1]; mast cells): 330 uM l-1
CCc1ccc(N/N=C2\CCC(C)n3c2ncc(C(=O)O)c3=O)cc1 (stereo unspecified)	–	–	> 1000 µmol/kg	–
CC1CC/C(=N\Nc2ccccc2[N+](=O)[O-])c2ncc(C(=O)O)c(=O)n21 (stereo unspecified)	–	–	> 1000 µmol/kg	–
CC1CCC(=NNc2ccccc2C(=O)O)c2ncc(C(=O)O)c(=O)n21 (single isomer, unassigned; (+))	–	–	–	EC50 ([1]; mast cells): 1100 uM l-1; ID50 [2]: 37.1 µM/kg
C[C@H]1CCC(=NNc2ccccc2)c2ncc(C(=O)O)c(=O)n21 (single isomer, unassigned; (+))	–	–	–	EC50 ([1]; mast cells, read-out: EC50): 0.6 µM; ID50 [2]: 0.3 µM/kg; ID50 [3]: 1 µM/kg
C[C@H]1CCC(=NNc2ccccc2)c2ncc(C(=O)O)c(=O)n21 (single isomer, unassigned; (-))	–	–	–	EC50 ([1]; mast cells, read-out: EC50): 8 µM; ID50 [2]: 54.8 µM/kg; ID50 [3]: >100 µM/kg
O=C(O)c1cc(=O)c2c(OCC(O)COc3cccc4oc(C(=O)O)cc(=O)c34)cccc2o1 [CROMOLYN SODIUM]	–	1 µmol/kg	–	–
